Test results taken from US20100249138A1, “MPZP: A SMALL MOLECULE CORTICOTROPIN-RELEASING FACTOR TYPE 1 RECEPTOR (CRF1) ANTOGONIST” (priority 2007, published 2010).
Entries after “also recorded” stand apart in the source; their conditions may differ.

Assays:
[1] = system: precipitated-withdrawal induced anxiety-like behavior; experiment: Defensive burying test during mecamylamine-precipitated nicotine withdrawal; assay type: in vivo, rat
Description: Nicotine hydrogen tartrate salt (Sigma, Natick) was dissolved in saline at pH 7.4 and experimenter-administered via minipump or self-administered via indwelling jugular catheter. Doses are expressed as free base. Mecamylamine (Sigma; Natick, Mass.) was dissolved in saline and administered i.p. (1 ml/kg). The CRF1 antagonist (N,N-bis(2-methoxyethyl)-3-(4-methoxy-2-methylphenyl)-2,5-dimethyl-pyrazolo-[1,5α]pyrimidin-7-amine, or MPZP) was synthesized at The Scripps Research Institute by Dr. P. Wirshing, dissolved in 20% hydroxypropyl beta-cyclodextrin (Cavitron, Cargill) in isotonic saline at pH 4.5 and administered s.c. (2 ml/kg, 45 to 60 min before testing). Rat/human CRF was supplied by Dr. Jean Rivier, The Salk Institute. CRF was dissolved in 1× PBS (pH 7.4) and prepared fresh few minutes before intracerebral injection. The doses and time of injections were selected based on previous studies [Richardson et al., Program No. 783. 4 Neuroscience Meeting Planner. Atlanta, Ga.: Society for Neuroscience, OnlineI (2006); Specio et al., Program No. 777. 11 Neuroscience Meeting Planner. Washington, D.C.: Society for Neuroscience, Online (2004)].
Rats were subcutaneously implanted with osmotic minipumps delivering either saline (n=33) or nicotine (n=31) (3.16 mg/kg/day, free base, s.c.) as described above. After 14 days of pump exposure, testing was performed 5-8 hours into the dark cycle in a standard cage with 2 inches of bedding (wood shavings) along the bottom and a small hole centered in one side one inch above the bedding to accommodate the shock-probe. Rats were habituated (45 minutes) to the test cage for 2 days prior to testing. On the test day, mecamylamine or its vehicle were administered 30 minutes before behavioral testing, and the CRF1 antagonist or its vehicle were administered 45 minutes before behavioral testing (n=7-9 per group). On contact with the probe and shock delivery (using a Coulbourn precision shocker, 1.5 mA, AC, <1 s), verified by a startle response, the probe was deactivated. The latency and duration of probe-directed burying, rearing, resting, grooming, and freezing were measured from videotape over a 10 minutes period by an experimenter blind to the subject treatment condition using a computer program.

[2] = system: nicotine self-administration; experiment: Nicotine self-administration, extended (23 hour) or limited (1 hour) access, nicotine deprivation effect; assay type: in vivo, rat
Description: The apparatus and detailed procedures for both intravenous catheterization and self-administration of nicotine have been described previously [O'dell et al., Pharmacol. Biochem. Behay. (2007) 86:346-353]. Adult male Wistar rats (280 to 330 g) were first allowed to nose-poke for food and water in 23 hours sessions prior to and after recovery from surgical implantation of jugular catheters. Following acquisition of these operant responses, rats were allowed to self-administer nicotine (0.03 mg/kg/100 μl/1 s, free base, fixed ratio=1 lever-response, time out=20 seconds) under different paradigms. Rats were allowed to acquire nicotine self-administration during daily 1 hour, “short-access” sessions (ShA, n=10) for at least 10 days. The CRF1 antagonist MPZP (0, 5, 10, 20 mg/kg) was then administered using a Latin square design, with 1-2 intervening treatment-free days. After completion of Study B, rats were allowed to self-administer nicotine during daily 23 hours, “long-access” sessions (LgA, n=8) for at least 10 days. Then, they were allowed to respond on a lever for nicotine self-administration in 4 four-day cycles, each separated by three intervening days of abstinence in their home cage. MPZP was administered before the first session following each cycle of abstinence using a Latin square design.

[3] = nicotine pump, CRF1 antagonist + Mecamylamine
[4] = nicotine pump, CRF1 antagonist + Vehicle
[5] = saline pump, CRF1 antagonist + Mecamylamine
[6] = saline pump, CRF1 antagonist + Vehicle

How did the Burying [1, 3] turn out when COCCN(CCOC)c1cc(C)nc2c(-c3ccc(OC)cc3C)c(C)nn12 [MPZP, N,N-bis(2-methoxyethyl)-3-(4-methoxy-2-methylphenyl)-2,5-dimethyl-pyrazolo[1,5-a]pyrimidin-7-amine] was run?
The Burying was 115 ± 24 s.

What about the Freezing [1, 3] of the same compound?
The Freezing was 7 ± 7 s.

What about the Grooming [1, 3] of the same compound?
Its Grooming is 38 ± 14 s.

And the Latency to bury [1, 3]?
The Latency to bury was 82 ± 19 s.

And the Rearing [1, 3]?
Its Rearing is 126 ± 21 s.

And the Resting [1, 3]?
The Resting was 68 ± 26 s.

And the Burying [1, 4]?
The Burying was 85 ± 42 s.

What about the Freezing [1, 4] of the same compound?
Its Freezing is 13 ± 7 s.

What about the Grooming [1, 4] of the same compound?
Its Grooming is 48 ± 18 s.

What about the Latency to bury [1, 4] of the same compound?
The Latency to bury was 130 ± 36 s.

And the Rearing [1, 4]?
The Rearing was 181 ± 21 s.

And the Resting [1, 4]?
Its Resting is 24 ± 11 s.

And the “anxiogenic-like effect of mecamylamine to increase burying” value ([1]; nicotine-dependent rats, MPZP 4 mg/kg s.c. pretreatment, mecamylamine 1.5 mg/kg i.p.)?
The value was “blocked”.

And the Burying [1, 5]?
Its Burying is 143 ± 20 s.

And the Freezing [1, 5]?
The Freezing was 5 ± 3 s.

And the Grooming [1, 5]?
Its Grooming is 15 ± 5 s.

What about the Latency to bury [1, 5] of the same compound?
Its Latency to bury is 80 ± 18 s.

And the Rearing [1, 5]?
Its Rearing is 139 ± 7 s.

What about the Resting [1, 5] of the same compound?
Its Resting is 51 ± 22 s.

What about the Burying [1, 6] of the same compound?
Its Burying is 145 ± 34 s.

And the Freezing [1, 6]?
The Freezing was 9 ± 8 s.

And the Grooming [1, 6]?
The Grooming was 26 ± 12 s.

What about the Latency to bury [1, 6] of the same compound?
The Latency to bury was 104 ± 29 s.

What about the Rearing [1, 6] of the same compound?
Its Rearing is 183 ± 19 s.

What about the Resting [1, 6] of the same compound?
Its Resting is 11 ± 7 s.

What about the “nicotine intake following abstinence” value ([2]; extended access (23 hour), 0, 5, 10, 20 mg/kg s.c., vs vehicle-treated) of the same compound?
Its value is “dose-dependently decreased”.

And the “baseline nicotine self-administration responding” value ([2]; limited access to nicotine (1 hour), s.c.)?
The value was “had no effect; also recorded: lack of effect”.
